The source of these data is PMC8550792, “Evolution of kinase polypharmacology across HSP90 drug discovery” (Cell Chemical Biology, 2021).

What all share (experiment): biochemical
Common to all, as to format: biochemical

Assay [1] deals with T1, 382 unique human kinases (Homo sapiens, UniProt Q9NR20).
T1 construct: purchased Reaction Biology (HotSpot contract assay)
T1 sequence (Q9NR20 1-520): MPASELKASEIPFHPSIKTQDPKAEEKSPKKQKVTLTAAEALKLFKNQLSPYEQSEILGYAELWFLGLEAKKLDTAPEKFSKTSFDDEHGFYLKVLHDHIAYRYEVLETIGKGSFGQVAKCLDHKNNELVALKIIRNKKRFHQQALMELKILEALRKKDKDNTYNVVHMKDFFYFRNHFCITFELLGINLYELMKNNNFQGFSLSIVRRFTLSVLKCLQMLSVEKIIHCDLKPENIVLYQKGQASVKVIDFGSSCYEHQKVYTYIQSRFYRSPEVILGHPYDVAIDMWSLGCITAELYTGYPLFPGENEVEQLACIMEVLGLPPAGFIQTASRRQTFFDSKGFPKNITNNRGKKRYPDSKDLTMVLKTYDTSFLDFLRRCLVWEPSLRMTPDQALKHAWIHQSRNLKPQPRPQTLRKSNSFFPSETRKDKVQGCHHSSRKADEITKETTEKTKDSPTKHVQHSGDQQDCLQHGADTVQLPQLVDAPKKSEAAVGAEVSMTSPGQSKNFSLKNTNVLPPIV
The note with it: DYRK4, 10 uM; for remaining activity at 10 µM: read-out: % Enzyme Activity (relative to DMSO controls).

Assay [2] addresses T2, 382 unique human kinases (Homo sapiens, UniProt P53667).
T2 construct: purchased Reaction Biology (HotSpot contract assay)
The note with it: LIMK1, 10 uM; for remaining activity at 10 µM: read-out: % Enzyme Activity (relative to DMSO controls).

Assay [3] addresses T3, 382 unique human kinases (Homo sapiens, UniProt Q15375).
T3 construct: purchased Reaction Biology (HotSpot contract assay)
The note with it: kinase EPHA7, compound 10 uM; for remaining activity at 10 µM: read-out: % Enzyme Activity (relative to DMSO controls).

For assay [4], the target named is T4, 382 unique human kinases (Homo sapiens, UniProt P50613).
T4 construct: purchased Reaction Biology (HotSpot contract assay)
The note with it: kinase CDK7/cyclin H, compound 10 uM; for remaining activity at 10 µM: read-out: % Enzyme Activity (relative to DMSO controls).

Assay [5] concerns the target T5, 382 unique human kinases (Homo sapiens, UniProt Q12852).
T5 sequence (Q12852 1-859): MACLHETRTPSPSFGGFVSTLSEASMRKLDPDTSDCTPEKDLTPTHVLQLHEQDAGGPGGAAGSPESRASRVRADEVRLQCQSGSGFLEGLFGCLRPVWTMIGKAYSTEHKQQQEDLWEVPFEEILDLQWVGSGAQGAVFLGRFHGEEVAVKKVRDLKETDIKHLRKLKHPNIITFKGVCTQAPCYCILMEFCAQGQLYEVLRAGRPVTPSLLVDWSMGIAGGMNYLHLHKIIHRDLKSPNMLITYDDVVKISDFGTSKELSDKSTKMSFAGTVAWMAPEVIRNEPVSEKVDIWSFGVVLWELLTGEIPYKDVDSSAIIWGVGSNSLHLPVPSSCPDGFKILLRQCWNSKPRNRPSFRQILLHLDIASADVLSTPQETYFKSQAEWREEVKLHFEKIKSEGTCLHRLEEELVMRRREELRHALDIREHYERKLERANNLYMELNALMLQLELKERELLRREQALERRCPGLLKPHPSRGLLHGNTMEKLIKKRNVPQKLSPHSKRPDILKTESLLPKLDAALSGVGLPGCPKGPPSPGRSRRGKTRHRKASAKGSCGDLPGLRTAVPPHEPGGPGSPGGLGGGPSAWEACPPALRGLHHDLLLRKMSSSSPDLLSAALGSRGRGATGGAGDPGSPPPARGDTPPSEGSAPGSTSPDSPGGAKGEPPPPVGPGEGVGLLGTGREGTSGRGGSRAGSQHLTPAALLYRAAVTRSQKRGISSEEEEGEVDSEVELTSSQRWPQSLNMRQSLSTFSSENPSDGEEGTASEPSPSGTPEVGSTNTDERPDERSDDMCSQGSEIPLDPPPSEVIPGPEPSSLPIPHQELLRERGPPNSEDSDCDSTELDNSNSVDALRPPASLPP
To be noted: kinase DLK/MAP3K12, compound 10 uM; for remaining activity at 10 µM: read-out: % Enzyme Activity (relative to DMSO controls).

In assay [6] the target is T6, 382 unique human kinases (Homo sapiens, UniProt Q15759).
T6 construct: purchased Reaction Biology (HotSpot contract assay)
To be noted: kinase P38b/MAPK11, compound 10 uM; for remaining activity at 10 µM: read-out: % Enzyme Activity (relative to DMSO controls).

Assay [7] deals with T7, 382 unique human kinases (Homo sapiens, UniProt Q13627).
T7 construct: purchased Reaction Biology (HotSpot contract assay)
To be noted: DYRK1/DYRK1A, 10 uM; for remaining activity at 10 µM: read-out: % Enzyme Activity (relative to DMSO controls).

Assay [8] addresses T8, 382 unique human kinases (Homo sapiens, UniProt Q16539).
T8 construct: purchased Reaction Biology (HotSpot contract assay)
The note with it: kinase P38a/MAPK14, compound 10 uM; for remaining activity at 10 µM: read-out: % Enzyme Activity (relative to DMSO controls).

Assay [9] has as its target T9, 382 unique human kinases (Homo sapiens, UniProt P10721, D820Y).
T9 construct: purchased Reaction Biology (HotSpot contract assay)
To be noted: c-Kit (D820Y), 10 uM; for remaining activity at 10 µM: read-out: % Enzyme Activity (relative to DMSO controls).

The target in assay [10] is T10, 382 unique human kinases (Homo sapiens, UniProt Q9UBS0).
T10 construct: purchased Reaction Biology (HotSpot contract assay)
The note with it: kinase p70S6Kb/RPS6KB2, compound 10 uM; for remaining activity at 10 µM: read-out: % Enzyme Activity (relative to DMSO controls).

Assay [11] has as its target T11, 382 unique human kinases (Homo sapiens, UniProt Q5S007, G2019S).
T11 construct: purchased Reaction Biology (HotSpot contract assay)
The note with it: LRRK2 (G2019S), [ATP] 50 µM, compound 10 uM; for remaining activity at 10 µM: read-out: % Enzyme Activity (relative to DMSO controls).

Assay [12] concerns the target T12, 382 unique human kinases (Homo sapiens, UniProt Q5TCX8).
T12 construct: purchased Reaction Biology (HotSpot contract assay)
To be noted: MLK4, 10 uM; for remaining activity at 10 µM: read-out: % Enzyme Activity (relative to DMSO controls).

The target in assay [13] is T13, 382 unique human kinases (Homo sapiens, UniProt Q15119).
T13 construct: purchased Reaction Biology (HotSpot contract assay)
The note with it: PDK2/PDHK2, [ATP] 15 µM.

Assay [14] has as its target T14, 382 unique human kinases (Homo sapiens, UniProt P11309).
T14 construct: purchased Reaction Biology (HotSpot contract assay)
To be noted: PIM1, [ATP] 100 µM, compound 10 uM; for remaining activity at 10 µM: read-out: % Enzyme Activity (relative to DMSO controls).

For assay [15], the target named is T15, 382 unique human kinases (Homo sapiens, UniProt P37023).
T15 construct: purchased Reaction Biology (HotSpot contract assay)
To be noted: ALK1/ACVRL1, 10 uM; for remaining activity at 10 µM: read-out: % Enzyme Activity (relative to DMSO controls).

Assay [16] addresses T16, 382 unique human kinases (Homo sapiens, UniProt P22455, N535K).
T16 construct: purchased Reaction Biology (HotSpot contract assay)
The note with it: FGFR4 (N535K), 10 uM; for remaining activity at 10 µM: read-out: % Enzyme Activity (relative to DMSO controls).

Assay [17] deals with T17, 382 unique human kinases (Homo sapiens, UniProt Q14680, T460M).
T17 construct: purchased Reaction Biology (HotSpot contract assay)
The note with it: MELK (T460M), [ATP] 20 µM, compound 10 uM; for remaining activity at 10 µM: read-out: % Enzyme Activity (relative to DMSO controls).

Setting [18] is: compound 10 uM, read-out: % Enzyme Activity (relative to DMSO controls).

T17 sequence (Q14680 whole entry T460M): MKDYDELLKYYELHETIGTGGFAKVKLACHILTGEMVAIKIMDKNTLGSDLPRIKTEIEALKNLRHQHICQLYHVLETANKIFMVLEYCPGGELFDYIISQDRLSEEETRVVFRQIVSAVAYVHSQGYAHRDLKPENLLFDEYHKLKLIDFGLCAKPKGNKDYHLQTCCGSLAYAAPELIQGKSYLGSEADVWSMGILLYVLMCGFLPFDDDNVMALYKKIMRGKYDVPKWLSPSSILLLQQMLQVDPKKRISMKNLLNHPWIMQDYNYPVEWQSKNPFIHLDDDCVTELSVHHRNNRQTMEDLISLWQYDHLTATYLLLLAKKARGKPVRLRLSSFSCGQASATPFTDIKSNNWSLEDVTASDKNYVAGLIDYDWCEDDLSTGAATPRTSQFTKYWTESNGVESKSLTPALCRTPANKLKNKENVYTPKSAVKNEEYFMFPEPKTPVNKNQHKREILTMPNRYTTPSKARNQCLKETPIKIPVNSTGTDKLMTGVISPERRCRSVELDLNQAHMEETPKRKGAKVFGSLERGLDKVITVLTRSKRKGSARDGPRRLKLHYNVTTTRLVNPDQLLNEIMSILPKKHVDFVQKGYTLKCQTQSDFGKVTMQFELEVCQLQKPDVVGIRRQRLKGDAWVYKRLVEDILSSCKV
T15 sequence (P37023 22-503): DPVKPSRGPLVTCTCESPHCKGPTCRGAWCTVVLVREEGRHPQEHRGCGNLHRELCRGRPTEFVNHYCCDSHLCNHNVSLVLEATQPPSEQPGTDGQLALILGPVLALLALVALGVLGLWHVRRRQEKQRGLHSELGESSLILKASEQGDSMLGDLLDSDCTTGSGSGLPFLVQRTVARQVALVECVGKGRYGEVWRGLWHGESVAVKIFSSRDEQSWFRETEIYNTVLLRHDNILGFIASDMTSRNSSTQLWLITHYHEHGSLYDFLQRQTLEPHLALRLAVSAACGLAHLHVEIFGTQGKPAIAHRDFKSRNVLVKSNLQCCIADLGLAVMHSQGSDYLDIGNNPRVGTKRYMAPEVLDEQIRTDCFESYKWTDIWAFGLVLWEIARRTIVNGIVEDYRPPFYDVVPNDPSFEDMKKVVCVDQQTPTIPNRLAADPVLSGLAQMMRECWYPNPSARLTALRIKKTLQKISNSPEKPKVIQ
T6 sequence (Q15759 whole entry): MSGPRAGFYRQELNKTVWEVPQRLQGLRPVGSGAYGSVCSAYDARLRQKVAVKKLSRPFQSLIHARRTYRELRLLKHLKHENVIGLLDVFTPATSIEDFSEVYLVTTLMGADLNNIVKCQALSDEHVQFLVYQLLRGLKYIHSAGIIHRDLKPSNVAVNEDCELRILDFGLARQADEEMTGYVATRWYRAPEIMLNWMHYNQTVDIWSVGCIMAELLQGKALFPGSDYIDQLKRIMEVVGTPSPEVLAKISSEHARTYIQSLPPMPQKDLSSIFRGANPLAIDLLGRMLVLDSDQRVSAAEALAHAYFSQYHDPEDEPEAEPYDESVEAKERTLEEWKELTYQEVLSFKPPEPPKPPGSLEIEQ
T2 sequence (P53667 whole entry): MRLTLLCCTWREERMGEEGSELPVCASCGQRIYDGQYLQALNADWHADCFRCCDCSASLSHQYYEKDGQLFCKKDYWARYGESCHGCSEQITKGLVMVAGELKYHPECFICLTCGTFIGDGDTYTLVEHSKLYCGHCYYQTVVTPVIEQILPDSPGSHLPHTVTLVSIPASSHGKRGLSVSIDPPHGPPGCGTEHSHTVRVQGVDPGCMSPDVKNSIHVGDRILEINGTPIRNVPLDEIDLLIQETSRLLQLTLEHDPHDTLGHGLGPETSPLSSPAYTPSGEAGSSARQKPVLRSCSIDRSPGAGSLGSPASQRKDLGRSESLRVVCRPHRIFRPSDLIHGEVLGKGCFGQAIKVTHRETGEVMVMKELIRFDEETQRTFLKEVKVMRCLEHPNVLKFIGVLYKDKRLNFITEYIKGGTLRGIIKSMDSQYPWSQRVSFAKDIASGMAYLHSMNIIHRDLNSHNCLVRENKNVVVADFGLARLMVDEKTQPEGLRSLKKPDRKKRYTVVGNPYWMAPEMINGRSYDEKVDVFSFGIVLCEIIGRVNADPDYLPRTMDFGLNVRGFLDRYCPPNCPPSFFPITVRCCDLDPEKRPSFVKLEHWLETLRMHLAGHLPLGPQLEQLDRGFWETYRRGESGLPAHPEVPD
T3 sequence (Q15375 28-998): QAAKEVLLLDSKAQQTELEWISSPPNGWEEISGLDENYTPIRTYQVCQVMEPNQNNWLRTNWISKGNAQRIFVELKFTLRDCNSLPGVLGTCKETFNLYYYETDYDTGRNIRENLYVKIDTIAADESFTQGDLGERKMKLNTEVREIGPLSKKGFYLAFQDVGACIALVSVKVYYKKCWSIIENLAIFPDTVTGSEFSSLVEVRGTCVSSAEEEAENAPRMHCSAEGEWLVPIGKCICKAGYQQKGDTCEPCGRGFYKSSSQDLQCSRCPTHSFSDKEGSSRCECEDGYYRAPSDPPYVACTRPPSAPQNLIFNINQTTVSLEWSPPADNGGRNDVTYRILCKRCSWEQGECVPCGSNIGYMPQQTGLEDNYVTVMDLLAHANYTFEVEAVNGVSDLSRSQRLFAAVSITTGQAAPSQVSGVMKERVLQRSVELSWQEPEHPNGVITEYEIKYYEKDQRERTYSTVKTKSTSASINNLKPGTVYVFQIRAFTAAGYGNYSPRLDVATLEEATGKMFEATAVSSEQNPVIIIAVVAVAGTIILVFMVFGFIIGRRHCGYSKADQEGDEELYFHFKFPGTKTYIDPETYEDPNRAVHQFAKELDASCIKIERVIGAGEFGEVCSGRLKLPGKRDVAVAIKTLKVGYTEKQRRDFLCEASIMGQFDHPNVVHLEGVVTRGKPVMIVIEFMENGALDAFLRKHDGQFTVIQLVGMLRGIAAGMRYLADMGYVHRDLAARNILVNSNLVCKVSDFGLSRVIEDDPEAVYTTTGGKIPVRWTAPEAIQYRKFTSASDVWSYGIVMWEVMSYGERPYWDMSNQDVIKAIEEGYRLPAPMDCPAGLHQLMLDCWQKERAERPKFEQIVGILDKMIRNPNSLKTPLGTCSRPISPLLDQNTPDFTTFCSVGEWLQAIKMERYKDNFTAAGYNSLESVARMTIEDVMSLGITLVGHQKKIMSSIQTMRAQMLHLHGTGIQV
T8 sequence (Q16539 whole entry): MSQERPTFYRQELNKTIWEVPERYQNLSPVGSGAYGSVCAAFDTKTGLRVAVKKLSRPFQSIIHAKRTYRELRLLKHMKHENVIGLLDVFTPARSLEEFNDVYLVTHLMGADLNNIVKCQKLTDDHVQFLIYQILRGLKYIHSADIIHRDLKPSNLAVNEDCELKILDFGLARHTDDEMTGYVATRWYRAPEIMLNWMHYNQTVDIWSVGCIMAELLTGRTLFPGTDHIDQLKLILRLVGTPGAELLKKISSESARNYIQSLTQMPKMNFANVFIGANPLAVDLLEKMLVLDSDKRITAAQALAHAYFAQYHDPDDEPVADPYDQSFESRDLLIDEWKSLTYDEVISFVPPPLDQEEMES
T14 sequence (P11309 whole entry): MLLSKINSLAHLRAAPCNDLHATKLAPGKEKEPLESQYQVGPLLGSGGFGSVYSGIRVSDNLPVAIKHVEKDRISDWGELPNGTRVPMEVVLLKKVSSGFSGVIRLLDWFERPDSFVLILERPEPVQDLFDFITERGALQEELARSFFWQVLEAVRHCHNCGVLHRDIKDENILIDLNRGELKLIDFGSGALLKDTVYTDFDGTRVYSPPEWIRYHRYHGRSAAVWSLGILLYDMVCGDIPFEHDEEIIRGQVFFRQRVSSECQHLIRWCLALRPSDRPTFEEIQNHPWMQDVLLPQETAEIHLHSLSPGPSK
T9 sequence (P10721 26-976 D820Y): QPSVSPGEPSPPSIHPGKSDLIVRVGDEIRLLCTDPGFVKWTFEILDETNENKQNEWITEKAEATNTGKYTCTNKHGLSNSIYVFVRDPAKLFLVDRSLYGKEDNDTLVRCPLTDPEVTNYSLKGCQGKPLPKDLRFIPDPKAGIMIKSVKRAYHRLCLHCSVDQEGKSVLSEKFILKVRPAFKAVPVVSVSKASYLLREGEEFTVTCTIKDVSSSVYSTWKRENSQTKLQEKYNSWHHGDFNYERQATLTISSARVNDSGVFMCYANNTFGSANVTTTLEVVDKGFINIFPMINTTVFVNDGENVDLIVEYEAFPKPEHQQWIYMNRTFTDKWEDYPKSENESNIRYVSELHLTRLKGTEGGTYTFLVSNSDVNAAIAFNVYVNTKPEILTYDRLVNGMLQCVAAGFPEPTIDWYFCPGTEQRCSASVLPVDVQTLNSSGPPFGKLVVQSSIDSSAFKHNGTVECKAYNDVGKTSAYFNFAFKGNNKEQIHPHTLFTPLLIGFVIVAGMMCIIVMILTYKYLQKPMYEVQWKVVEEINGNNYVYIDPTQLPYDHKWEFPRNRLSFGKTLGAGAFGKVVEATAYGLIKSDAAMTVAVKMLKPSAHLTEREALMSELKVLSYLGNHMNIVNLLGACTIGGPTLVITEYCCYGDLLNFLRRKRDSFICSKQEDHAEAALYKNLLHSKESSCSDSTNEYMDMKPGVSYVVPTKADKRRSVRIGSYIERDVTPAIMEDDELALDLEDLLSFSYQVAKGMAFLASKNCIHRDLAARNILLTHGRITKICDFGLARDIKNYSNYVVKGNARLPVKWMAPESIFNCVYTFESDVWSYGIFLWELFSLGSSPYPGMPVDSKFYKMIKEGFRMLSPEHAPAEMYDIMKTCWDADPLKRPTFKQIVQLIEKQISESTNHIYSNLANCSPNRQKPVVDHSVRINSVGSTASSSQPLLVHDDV

On to `CC(C)c1cc(-c2n[nH]c(=O)n2-c2ccc3c(ccn3C)c2)c(O)cc1O` [Ganetespib (STA9090)], for which the remaining activity at 10 µM on 382 unique human kinases [1] came out at 96.8%; on 382 unique human kinases [2], 67.6%; at 382 unique human kinases [3] it was 86.7%; on 382 unique human kinases [4] it was 95.8%; at 382 unique human kinases [5], 84.7%; at 382 unique human kinases [6], 108%. The remaining activity at 10 µM at 382 unique human kinases [7] is 69.6%; on 382 unique human kinases [8], 89.6%; on 382 unique human kinases [9], 62.7%; on 382 unique human kinases [10] it was 96.6%.
As for `CC(C)c1cc(-c2n[nH]c(=O)n2-c2ccc3c(ccn3C)c2)c(O)cc1O` [Ganetespib], the remaining activity at 10 µM on 382 unique human kinases [11] is 28.6%; on 382 unique human kinases [12], 141%; at 382 unique human kinases [13] (setting [18]), 11.2%; at 382 unique human kinases [14], 15.9%; at 382 unique human kinases [15], 95.6%; on 382 unique human kinases [16], 101%. Besides, on 382 unique human kinases [17], the remaining activity at 10 µM was found to be 43.6%. For the same compound, the remaining activity at 1 µM on 382 unique human kinases [13] (compound 1 uM, read-out: % Enzyme Activity (relative to DMSO controls)) is 41.9%.
Turning to `CCNC(=O)c1noc(-c2cc(C(C)C)c(O)cc2O)c1-c1ccc(CN2CCOCC2)cc1` [Luminespib (AUY-922)], the “% Enzyme Activity (relative to DMSO controls)” value at 382 unique human kinases [1] turned out to be 63.33%; on 382 unique human kinases [2], 101.40%; at 382 unique human kinases [3], 95.91%; on 382 unique human kinases [4], 84.47%; at 382 unique human kinases [5] it was 120.31%; on 382 unique human kinases [6], 82.81%. Besides, the “% Enzyme Activity (relative to DMSO controls)” value on 382 unique human kinases [7] stood at 94.59%; on 382 unique human kinases [8], 90.33%; on 382 unique human kinases [9], 70.30%; on 382 unique human kinases [10], 108.19%. For the same compound, the remaining activity at 10 µM is 66.1% at 382 unique human kinases [1]; 102% on 382 unique human kinases [2]; 97.9% at 382 unique human kinases [3]; 85.3% on 382 unique human kinases [4]; 122% on 382 unique human kinases [5]; 86.3% at 382 unique human kinases [6]. In addition, the remaining activity at 10 µM was 97.2% at 382 unique human kinases [7], 95.1% on 382 unique human kinases [8], 71.4% at 382 unique human kinases [9] and 113% at 382 unique human kinases [10].
Consider `CCNC(=O)c1noc(-c2cc(C(C)C)c(O)cc2O)c1-c1ccc(CN2CCOCC2)cc1` [Luminespib], for which the “% Enzyme Activity (relative to DMSO controls)” value turned out to be 91.80% on 382 unique human kinases [11]; 99.12% on 382 unique human kinases [12]; 20.58% at 382 unique human kinases [13] (compound 10 uM); 94.76% on 382 unique human kinases [14]; 102.87% at 382 unique human kinases [15]; 97.33% on 382 unique human kinases [16]. On 382 unique human kinases [17], the “% Enzyme Activity (relative to DMSO controls)” value turned out to be 72.49%. In addition, the remaining activity at 10 µM on 382 unique human kinases [11] turned out to be 93.5%; on 382 unique human kinases [12], 101%; on 382 unique human kinases [13] (setting [18]) it was 22.4%; on 382 unique human kinases [14] it was 97.2%; on 382 unique human kinases [15], 105%; on 382 unique human kinases [16] it was 101%. Besides, the remaining activity at 10 µM at 382 unique human kinases [17] was found to be 74.9%.
